According to the NIST ThermoML archive (doi:10.1016/j.jct.2003.11.008):
Numbers after ± are expanded uncertainties.

Key:
[1] = excess molar enthalpy (molar enthalpy of mixing); xn = mol fraction of the nth substance listed; conditions: 318.15 K, 101.3 kPa, Liquid
[2] = xn = mol fraction of the nth substance listed; conditions: 318.15 K, 101.3 kPa, Liquid

CCCCCCCCCCC [undecane] + CCCCOC(C)=O
Conditions	excess molar enthalpy [kcal/mol]	excess molar volume [m3/mol]
[1], x2 = 0.0677	0.08 ± 0.00163	–
[1], x2 = 0.1493	0.151 ± 0.00263	–
[1], x2 = 0.2299	0.21 ± 0.00359	–
[1], x2 = 0.3113	0.255 ± 0.0043	–
[1], x2 = 0.3836	0.282 ± 0.00478	–
[1], x2 = 0.4482	0.296 ± 0.00502	–
[1], x2 = 0.5078	0.3 ± 0.00502	–
[1], x2 = 0.5555	0.295 ± 0.00502	–
[1], x2 = 0.5708	0.292 ± 0.00502	–
[1], x2 = 0.6136	0.28 ± 0.00478	–
[1], x2 = 0.6586	0.265 ± 0.00454	–
[1], x2 = 0.7055	0.248 ± 0.0043	–
[1], x2 = 0.7534	0.225 ± 0.00382	–
[1], x2 = 0.7837	0.206 ± 0.00359	–
[1], x2 = 0.832	0.173 ± 0.00311	–
[1], x2 = 0.8778	0.135 ± 0.00239	–
[1], x2 = 0.9233	0.0902 ± 0.00177	–
[1], x2 = 0.9637	0.0459 ± 0.0011	–
[2], x2 = 0.0356	–	1.49e-07 ± 1.6e-08
[2], x2 = 0.0842	–	3.26e-07 ± 1.7e-08
[2], x2 = 0.1543	–	5.21e-07 ± 1.8e-08
[2], x2 = 0.2226	–	6.82e-07 ± 1.9e-08
[2], x2 = 0.288	–	7.97e-07 ± 1.9e-08
[2], x2 = 0.35	–	8.56e-07 ± 1.9e-08
[2], x2 = 0.407	–	9.28e-07 ± 2e-08
[2], x2 = 0.4636	–	9.43e-07 ± 2e-08
[2], x2 = 0.5172	–	9.66e-07 ± 2e-08
[2], x2 = 0.5676	–	9.44e-07 ± 2e-08
[2], x2 = 0.6153	–	9.27e-07 ± 2e-08
[2], x2 = 0.6613	–	8.79e-07 ± 2e-08
[2], x2 = 0.7042	–	8.17e-07 ± 1.9e-08
[2], x2 = 0.7392	–	7.75e-07 ± 1.9e-08
[2], x2 = 0.8289	–	5.74e-07 ± 1.8e-08
[2], x2 = 0.8978	–	3.84e-07 ± 1.7e-08
[2], x2 = 0.9408	–	2.33e-07 ± 1.7e-08

CCCCCCCCCCC [undecane] + CCCOC(C)=O
Conditions	excess molar enthalpy [kcal/mol]	excess molar volume [m3/mol]
[1], x2 = 0.0814	0.103 ± 0.00198	–
[1], x2 = 0.1501	0.173 ± 0.00311	–
[1], x2 = 0.2265	0.24 ± 0.00406	–
[1], x2 = 0.2928	0.288 ± 0.00478	–
[1], x2 = 0.3534	0.32 ± 0.00526	–
[1], x2 = 0.4082	0.341 ± 0.00574	–
[1], x2 = 0.4582	0.354 ± 0.00598	–
[1], x2 = 0.5031	0.358 ± 0.00598	–
[1], x2 = 0.5439	0.358 ± 0.00598	–
[1], x2 = 0.5841	0.354 ± 0.00598	–
[1], x2 = 0.6226	0.345 ± 0.00574	–
[1], x2 = 0.6441	0.332 ± 0.0055	–
[1], x2 = 0.6911	0.312 ± 0.00526	–
[1], x2 = 0.7407	0.285 ± 0.00478	–
[1], x2 = 0.7924	0.25 ± 0.0043	–
[1], x2 = 0.8458	0.198 ± 0.00335	–
[1], x2 = 0.8971	0.141 ± 0.00263	–
[1], x2 = 0.9495	0.078 ± 0.0016	–
[2], x2 = 0.0791	–	3.43e-07 ± 1.7e-08
[2], x2 = 0.1544	–	6e-07 ± 1.8e-08
[2], x2 = 0.2306	–	8.2e-07 ± 1.9e-08
[2], x2 = 0.2908	–	9.49e-07 ± 2e-08
[2], x2 = 0.3479	–	1.051e-06 ± 2e-08
[2], x2 = 0.4046	–	1.133e-06 ± 2.1e-08
[2], x2 = 0.4573	–	1.159e-06 ± 2.1e-08
[2], x2 = 0.51	–	1.176e-06 ± 2.1e-08
[2], x2 = 0.5596	–	1.185e-06 ± 2.1e-08
[2], x2 = 0.6019	–	1.165e-06 ± 2.1e-08
[2], x2 = 0.6553	–	1.125e-06 ± 2.1e-08
[2], x2 = 0.6903	–	1.077e-06 ± 2.1e-08
[2], x2 = 0.7637	–	9.27e-07 ± 2e-08
[2], x2 = 0.8486	–	6.89e-07 ± 1.9e-08
[2], x2 = 0.9127	–	4.52e-07 ± 1.8e-08
[2], x2 = 0.9592	–	2.26e-07 ± 1.7e-08

CCCCCCCCCCC [undecane] + CCOC(C)=O
Conditions	excess molar enthalpy [kcal/mol]	excess molar volume [m3/mol]
[1], x2 = 0.1003	0.149 ± 0.00263	–
[1], x2 = 0.1944	0.252 ± 0.0043	–
[1], x2 = 0.2921	0.343 ± 0.00574	–
[1], x2 = 0.3767	0.402 ± 0.00669	–
[1], x2 = 0.4501	0.433 ± 0.00717	–
[1], x2 = 0.509	0.443 ± 0.00717	–
[1], x2 = 0.5537	0.441 ± 0.00717	–
[1], x2 = 0.5965	0.436 ± 0.00717	–
[1], x2 = 0.6065	0.433 ± 0.00717	–
[1], x2 = 0.6498	0.413 ± 0.00669	–
[1], x2 = 0.6942	0.39 ± 0.00645	–
[1], x2 = 0.7366	0.364 ± 0.00598	–
[1], x2 = 0.7848	0.326 ± 0.0055	–
[1], x2 = 0.8361	0.272 ± 0.00454	–
[1], x2 = 0.8884	0.206 ± 0.00359	–
[1], x2 = 0.9357	0.141 ± 0.00263	–
[1], x2 = 0.9742	0.0596 ± 0.00136	–
[2], x2 = 0.0632	–	3.65e-07 ± 3.4e-08
[2], x2 = 0.1076	–	5.64e-07 ± 3.6e-08
[2], x2 = 0.1921	–	8.99e-07 ± 3.9e-08
[2], x2 = 0.2759	–	1.151e-06 ± 4.2e-08
[2], x2 = 0.3521	–	1.328e-06 ± 4.3e-08
[2], x2 = 0.4213	–	1.429e-06 ± 4.4e-08
[2], x2 = 0.4771	–	1.49e-06 ± 4.5e-08
[2], x2 = 0.5319	–	1.504e-06 ± 4.5e-08
[2], x2 = 0.5859	–	1.504e-06 ± 4.5e-08
[2], x2 = 0.6355	–	1.461e-06 ± 4.5e-08
[2], x2 = 0.6817	–	1.385e-06 ± 4.4e-08
[2], x2 = 0.7223	–	1.311e-06 ± 4.3e-08
[2], x2 = 0.7656	–	1.17e-06 ± 4.2e-08
[2], x2 = 0.7889	–	1.147e-06 ± 4.2e-08
[2], x2 = 0.8628	–	8.46e-07 ± 3.9e-08
[2], x2 = 0.9234	–	5.39e-07 ± 3.6e-08
[2], x2 = 0.9664	–	2.63e-07 ± 3.3e-08

CCCCCCCCCCC [undecane] + COC(C)=O
Conditions	excess molar enthalpy [kcal/mol]	excess molar volume [m3/mol]
[1], x2 = 0.1	0.161 ± 0.00287	–
[1], x2 = 0.203	0.297 ± 0.00502	–
[1], x2 = 0.2975	0.406 ± 0.00669	–
[1], x2 = 0.3707	0.475 ± 0.00765	–
[1], x2 = 0.4315	0.516 ± 0.00837	–
[1], x2 = 0.4836	0.538 ± 0.0086	–
[1], x2 = 0.528	0.547 ± 0.00884	–
[1], x2 = 0.5612	0.549 ± 0.00884	–
[1], x2 = 0.5935	0.548 ± 0.00884	–
[1], x2 = 0.6178	0.544 ± 0.00884	–
[1], x2 = 0.6538	0.533 ± 0.0086	–
[1], x2 = 0.6915	0.517 ± 0.00837	–
[1], x2 = 0.7306	0.494 ± 0.00813	–
[1], x2 = 0.769	0.463 ± 0.00765	–
[1], x2 = 0.8102	0.418 ± 0.00693	–
[1], x2 = 0.851	0.37 ± 0.00621	–
[1], x2 = 0.888	0.299 ± 0.00502	–
[1], x2 = 0.9283	0.223 ± 0.00382	–
[1], x2 = 0.9664	0.124 ± 0.00237	–
[2], x2 = 0.1232	–	7.69e-07 ± 1.9e-08
[2], x2 = 0.2463	–	1.347e-06 ± 2.2e-08
[2], x2 = 0.3266	–	1.58e-06 ± 2.3e-08
[2], x2 = 0.3942	–	1.734e-06 ± 2.4e-08
[2], x2 = 0.4679	–	1.879e-06 ± 2.4e-08
[2], x2 = 0.5333	–	1.922e-06 ± 2.4e-08
[2], x2 = 0.5823	–	1.908e-06 ± 2.4e-08
[2], x2 = 0.6365	–	1.851e-06 ± 2.4e-08
[2], x2 = 0.68	–	1.765e-06 ± 2.4e-08
[2], x2 = 0.7221	–	1.676e-06 ± 2.3e-08
[2], x2 = 0.76	–	1.554e-06 ± 2.3e-08
[2], x2 = 0.7954	–	1.415e-06 ± 2.2e-08
[2], x2 = 0.8183	–	1.337e-06 ± 2.2e-08
[2], x2 = 0.8875	–	9.9e-07 ± 2e-08
[2], x2 = 0.935	–	6.43e-07 ± 1.8e-08
[2], x2 = 0.9683	–	3.52e-07 ± 1.7e-08
